The values below come from patent US20090156517A1, “STABLE PHARMACEUTICAL COMPOSITIONS OF AMINOGLYCOSIDE ANTIBIOTICS, ION-CHELATING AGENTS, AND BUFFERS” (priority 2006, published 2009).

A short description of data set [1]: Amounts of antibiotic components in the solution over time (reverse-phase LC/UV for β-lactams and β-lactamase inhibitors, HPLC/evaporation-light-scattering for aminoglycosides). The class given is physicochemical. How it is done: The amounts of β-lactam antibiotics and β-lactamase inhibitor were determined using C18 reverse-phase LC and UV-VIS detector (Tianjin […] Co., Ltd., analysis method No. HM-K-03). The content of aminoglycoside antibiotics was measured using reverse-phase HPLC and evaporation-light-scattering detector (Tianjin […] Co., Ltd., analysis method No. HM-K-08). […] The relative amount of each antibiotic component in the composition at each time point was expressed as peak area ratio with respect to the corresponding peak area of an external standard.

Data set [2] is described as follows: HIAC light obscuration test (USP 788), aggregate particle content. The class given is physicochemical. The settings on record: composition prepared as a liquid solution. As for the experimental part:
Light obscuration testing was performed for solution preparations prepared with some of the compositions described in the examples according to the method described in the United States Pharmacopeia (USP 788) using HIAC-3000 light obscuration detector. Particle content is denoted by the number of particles per milliliter of solution. The value is an average of two measurements. Samples were tested at 1 hour and at 20 hours.

Entries after “also recorded” stand apart in the source; their conditions may differ.

As for `CCN[C@@H]1C[C@H](N)[C@@H](O[C@H]2O[C@H](CN)CC[C@H]2N)[C@H](O)[C@H]1O[C@H]1OC[C@](C)(O)[C@H](NC)[C@H]1O` [Etimicin, etimicin], the “Amount of component, percentage of amount at initial time” value in data set [1] (Example 6 solution (cefoperazone sodium, sulbactam sodium, etimicin sulfate, disodium EDTA, sodium citrate pH 6.5), room temperature, 0 h) is 108.9%; in data set [1] (Example 6 solution (cefoperazone sodium, sulbactam sodium, etimicin sulfate, disodium EDTA, sodium citrate pH 6.5), room temperature, 1 h), 100.2%; in data set [1] (Example 6 solution (cefoperazone sodium, sulbactam sodium, etimicin sulfate, disodium EDTA, sodium citrate pH 6.5), room temperature, 2 h) it was 100.5%; in data set [1] (Example 6 solution (cefoperazone sodium, sulbactam sodium, etimicin sulfate, disodium EDTA, sodium citrate pH 6.5), room temperature, 4 h) it was 100.4%; in data set [1] (Example 6 solution (cefoperazone sodium, sulbactam sodium, etimicin sulfate, disodium EDTA, sodium citrate pH 6.5), room temperature, 6 h), 100.4%; in data set [1] (Example 6 solution (cefoperazone sodium, sulbactam sodium, etimicin sulfate, disodium EDTA, sodium citrate pH 6.5), room temperature, 8 h) it was 97.50%. In addition, the “Amount of component, percentage of amount at initial time” value is 100.7% in data set [1] (Example 7 solution (ceftriaxone sodium, sulbactam sodium, etimicin sulfate, disodium EDTA, sodium citrate pH 6.5), room temperature, 0 h); 101.0% in data set [1] (Example 7 solution (ceftriaxone sodium, sulbactam sodium, etimicin sulfate, disodium EDTA, sodium citrate pH 6.5), room temperature, 1 h); 101.0% in data set [1] (Example 7 solution (ceftriaxone sodium, sulbactam sodium, etimicin sulfate, disodium EDTA, sodium citrate pH 6.5), room temperature, 2 h); 101.0% in data set [1] (Example 7 solution (ceftriaxone sodium, sulbactam sodium, etimicin sulfate, disodium EDTA, sodium citrate pH 6.5), room temperature, 4 h); 100.8% in data set [1] (Example 7 solution (ceftriaxone sodium, sulbactam sodium, etimicin sulfate, disodium EDTA, sodium citrate pH 6.5), room temperature, 6 h); 100.7% in data set [1] (Example 7 solution (ceftriaxone sodium, sulbactam sodium, etimicin sulfate, disodium EDTA, sodium citrate pH 6.5), room temperature, 8 h). Further, the “Amount of component, percentage of amount at initial time” value in data set [1] (Example 11: solution of Example 10 freeze-dried, stored 7 days at 0° C., redissolved, pH 6.0, etimicin sulfate and disodium EDTA added, 0 h) was 94.81%; in data set [1] (Example 11: solution of Example 10 freeze-dried, stored 7 days at 0° C., redissolved, pH 6.0, etimicin sulfate and disodium EDTA added, 1 h), 99.66%; in data set [1] (Example 11: solution of Example 10 freeze-dried, stored 7 days at 0° C., redissolved, pH 6.0, etimicin sulfate and disodium EDTA added, 2 h), 100.9%; in data set [1] (Example 11: solution of Example 10 freeze-dried, stored 7 days at 0° C., redissolved, pH 6.0, etimicin sulfate and disodium EDTA added, 4 h), 101.5%; in data set [1] (Example 11: solution of Example 10 freeze-dried, stored 7 days at 0° C., redissolved, pH 6.0, etimicin sulfate and disodium EDTA added, 6 h), 96.97%; in data set [1] (Example 11: solution of Example 10 freeze-dried, stored 7 days at 0° C., redissolved, pH 6.0, etimicin sulfate and disodium EDTA added, 8 h), 94.44%. The “Amount of component, percentage of amount at initial time” value in data set [1] (Example 14: cefoperazone sodium/tazobactam sodium solution pH 6.75, etimicin sulfate added, 0 h) came to 100%; in data set [1] (Example 14: cefoperazone sodium/tazobactam sodium solution pH 6.75, etimicin sulfate added, 1 h), 98.8%; in data set [1] (Example 14: cefoperazone sodium/tazobactam sodium solution pH 6.75, etimicin sulfate added, 2 h) it was 97.5%; in data set [1] (Example 14: cefoperazone sodium/tazobactam sodium solution pH 6.75, etimicin sulfate added, 4 h) it was 98.4%; in data set [1] (Example 14: cefoperazone sodium/tazobactam sodium solution pH 6.75, etimicin sulfate added, 6 h), 95.6%; in data set [1] (Example 14: cefoperazone sodium/tazobactam sodium solution pH 6.75, etimicin sulfate added, 8 h), 92.8%.
Regarding `O=C(O)CN(CCN(CC(=O)O)CC(=O)O)CC(=O)O` [EDTA, ethylenediamine tetraacetic acid], the “Effect on aggregate particle formation in the solution preparations” value in data set [2] is reported as “significantly reduce aggregate particle formation; also recorded: effective in inhibiting formation of aggregate particles”.
Turning to `C[C@]1(Cn2ccnn2)[C@H](C(=O)O)N2C(=O)C[C@H]2S1(=O)=O` [Tazobactam sodium, tazobactam sodium], the “Amount of component, percentage of amount at initial time” value was 102.2% in data set [1] (Example 8 solution (ceftriaxone sodium, tazobactam sodium, gentamicin sulfate, sodium citrate pH 6.75), room temperature, 0 h); 97.53% in data set [1] (Example 8 solution (ceftriaxone sodium, tazobactam sodium, gentamicin sulfate, sodium citrate pH 6.75), room temperature, 1 h); 94.16% in data set [1] (Example 8 solution (ceftriaxone sodium, tazobactam sodium, gentamicin sulfate, sodium citrate pH 6.75), room temperature, 2 h); 94.58% in data set [1] (Example 8 solution (ceftriaxone sodium, tazobactam sodium, gentamicin sulfate, sodium citrate pH 6.75), room temperature, 4 h); 95.45% in data set [1] (Example 8 solution (ceftriaxone sodium, tazobactam sodium, gentamicin sulfate, sodium citrate pH 6.75), room temperature, 6 h); 94.44% in data set [1] (Example 8 solution (ceftriaxone sodium, tazobactam sodium, gentamicin sulfate, sodium citrate pH 6.75), room temperature, 8 h). The “Amount of component, percentage of amount at initial time” value in data set [1] (Example 14: cefoperazone sodium/tazobactam sodium solution pH 6.75, disodium EDTA and amikacin sulfate added, room temperature, 0 h) came to 98.5%; in data set [1] (Example 14: cefoperazone sodium/tazobactam sodium solution pH 6.75, disodium EDTA and amikacin sulfate added, room temperature, 1 h), 98.7%; in data set [1] (Example 14: cefoperazone sodium/tazobactam sodium solution pH 6.75, disodium EDTA and amikacin sulfate added, room temperature, 2 h), 98.2%; in data set [1] (Example 14: cefoperazone sodium/tazobactam sodium solution pH 6.75, disodium EDTA and amikacin sulfate added, room temperature, 4 h), 95.6%; in data set [1] (Example 14: cefoperazone sodium/tazobactam sodium solution pH 6.75, disodium EDTA and amikacin sulfate added, room temperature, 6 h) it was 94.0%; in data set [1] (Example 14: cefoperazone sodium/tazobactam sodium solution pH 6.75, disodium EDTA and amikacin sulfate added, room temperature, 8 h), 96.1%.
gentamicin: the “Amount of component, percentage of amount at initial time” value in data set [1] (Example 5 solution (cefoperazone sodium, sulbactam sodium, gentamicin, disodium EDTA, sodium citrate pH 6.75), room temperature, 0 h) turned out to be 102.1%; in data set [1] (Example 5 solution (cefoperazone sodium, sulbactam sodium, gentamicin, disodium EDTA, sodium citrate pH 6.75), room temperature, 1 h) it was 104.6%; in data set [1] (Example 5 solution (cefoperazone sodium, sulbactam sodium, gentamicin, disodium EDTA, sodium citrate pH 6.75), room temperature, 2 h), 96.51%; in data set [1] (Example 5 solution (cefoperazone sodium, sulbactam sodium, gentamicin, disodium EDTA, sodium citrate pH 6.75), room temperature, 4 h), 100.4%.
